Consider 3 molecules from patent US20200000772A1, “CENICRIVIROC COMBINATION THERAPY FOR THE TREATMENT OF FIBROSIS” (Tobira Therapeutics, Inc., priority 2014, published 2020).

Data set [1] concerns HIV-1 infected adult subjects. The experiment in a line: Study 202 biomarkers of inflammation. It is filed as in vivo, human. How it is done: As an exploratory analysis, levels of inflammation biomarkers MCP-1, sCD14, high sensitivity C-reactive protein [hs-CRP], interleukin-6 [IL-6], D-dimer, and fibrinogen) were measured. Baseline values and changes from baseline at Week 24 and Week 48 of MCP-1, sCD14, hs-CRP, IL-6, D-dimer, and fibrinogen are summarized in Table 22.
The sCD14 samples were originally analyzed in 2 separate batches: Batch 1 included samples leading up to the Week 24 primary analysis and Batch 2 included Week 32 and Week 48 (end of study) samples. A repeat analysis of archived samples all analyzed in one batch was conducted for consistency in analysis across time points. To control for the effects of covariates, a linear mixed-model repeated-measures analysis was conducted on the changes from baseline in sCD14 (analysis dated September 2013).

The test system of data set [2] is adults with CCR5 tropic HIV-1. The experiment in a line: Study 202 post-hoc APRI and FIB-4 fibrosis index scores. It counts as in vivo, human. As to the method:
APRI and FIB-4 scores were calculated. Change in score category from baseline (BL) to Weeks 24 and 48 was assessed in patients with non-missing data. Correlations between changes from BL in APRI and FIB-4 scores, and MCP-1 (CCR2 ligand) and sCD14 (inflammatory biomarker) levels were evaluated.

A short description of data set [3]: Phase 1 CVC and pioglitazone co-administration PK and safety study. It counts as in vivo, healthy subjects. The conditions noted are these: CVC 150 mg QD and PGZ 45 mg QD. How it is done:
Plasma samples were collected prior to each dose and over 24 hours at the end of each treatment period. Cmax, Cmin, tmax, and AUC0-tau were determined using non-compartmental methods. Geometric means, GMRs and CIs were calculated.

A short description of data set [4]: Solubility of cenicriviroc mesylate. It is filed as physicochemical. The text has this: In one embodiment, the acid addition salt of cenicriviroc is cenicriviroc mesylate, e.g., (S)-8-[4-(2-Butoxyethoxy)phenyl]-1-isobutyl-N-(4-{[(1-propyl-1H-imidazol-5-yl)methyl]sulfinyl}phenyl)-1,2,3,4-tetrahydro-1-benzazocine-5-carboxamide monomethanesulfonoate. In one embodiment, the cenicriviroc mesylate is a crystalline material, such as a pale greenish-yellow crystalline powder.

The structures appear in SMILES notation. Where a name gives a salt, the structure may show the parent alone.

For the molecule `O=C1Nc2ccc(Cl)cc2[C@@](C#CC2CC2)(C(F)(F)F)O1` [EFV, efavirenz, reference compound], in data set [1] (CVC 100 mg and 200 mg, EFV, up to Week 48), the “plasma MCP-1 over time” value is reported as “remained at baseline values”. Further, in data set [1] (EFV 600 mg), the “D-dimer Changes from baseline at Week 24, Mean” value is -53 ng/mL; the “D-dimer Changes from baseline at Week 24, Median” value is -26 ng/mL; the “D-dimer Changes from baseline at Week 48, Mean” value was -34 ng/mL; the “D-dimer Changes from baseline at Week 48, Median” value stood at 0.0 ng/mL. Besides, in data set [1] (EFV 600 mg), the “Fibrinogen Changes from baseline at Week 24, Mean” value is -28 mg/dL; the “Fibrinogen Changes from baseline at Week 24, Median” value was -31 mg/dL; the “Fibrinogen Changes from baseline at Week 48, Mean” value is -30 mg/dL; the “Fibrinogen Changes from baseline at Week 48, Median” value is -22 mg/dL. Besides, in data set [1] (EFV 600 mg), the “IL-6 Changes from baseline at Week 24, Mean” value is -8.72 pg/mL; the “IL-6 Changes from baseline at Week 24, Median” value came to 0.00 pg/mL; the “IL-6 Changes from baseline at Week 48, Mean” value was -13.11 pg/mL; the “IL-6 Changes from baseline at Week 48, Median” value turned out to be 0.00 pg/mL. Besides, in data set [1] (EFV 600 mg), the “MCP-1 Changes from baseline at Week 24, Mean” value was -44 pg/mL; the “MCP-1 Changes from baseline at Week 24, Median” value is -17 pg/mL; the “MCP-1 Changes from baseline at Week 48, Mean” value is 4.2 pg/mL; the “MCP-1 Changes from baseline at Week 48, Median” value was determined as 33.6 pg/mL. Besides, in data set [1] (EFV 600 mg), the “hs-CRP Changes from baseline at Week 24, Mean” value is -0.46 mg/dL; the “hs-CRP Changes from baseline at Week 24, Median” value is -0.01 mg/dL; the “hs-CRP Changes from baseline at Week 48, Mean” value was -0.71 mg/dL; the “hs-CRP Changes from baseline at Week 48, Median” value is -0.03 mg/dL. Besides, in data set [1] (EFV 600 mg, original values), the “sCD14 Changes from baseline Week 32, Mean” value came to 480000 pg/mL; the “sCD14 Changes from baseline Week 32, Median” value worked out at 170000 pg/mL; the “sCD14 Changes from baseline at Week 12, Mean” value is 90000 pg/mL; the “sCD14 Changes from baseline at Week 12, Median” value worked out at 1.8e+07 pg/mL. Besides, in data set [1] (EFV 600 mg, original values), the “sCD14 Changes from baseline at Week 24, Mean” value is 230000 pg/mL; the “sCD14 Changes from baseline at Week 24, Median” value was 130000 pg/mL; the “sCD14 Changes from baseline at Week 48, Mean” value turned out to be 640000 pg/mL; the “sCD14 Changes from baseline at Week 48, Median” value came to 460000 pg/mL. The “sCD14 over 48 weeks of treatment (linear mixed-model analysis of repeat sCD14 analysis)” value in data set [1] (both CVC treatment arms, EFV arm) is recorded as “increase”. In data set [2] (Baseline), the “subjects with APRI 0.5-1.5” value is 4%, the “subjects with APRI <0.5” value was determined as 96% and the “subjects with FIB-4 <1.45” value is 100%. Also, in data set [2] (Week 24), the “subjects with APRI <0.5” value is on record as 100%, the “subjects with APRI decreased 1 category from baseline” value stood at 5% and the “subjects with FIB-4 <1.45” value stood at 100%. In data set [2] (Week 48), the “subjects with APRI <0.5” value is on record as 100%, the “subjects with APRI decreased 1 category from baseline” value was 6%, the “subjects with FIB-4 1.45-3.25” value was 6% and the “subjects with FIB-4 <1.45” value turned out to be 94%.
With `CCc1ccc(CCOc2ccc(CC3SC(=O)NC3=O)cc2)nc1` (centres unmarked) [PGZ, Pioglitazone, reference compound], in data set [3], the Cmin on co-administration result is recorded as “remained unchanged”; the “steady-state Cmax and AUC0-tau on co-administration” value is “modest decrease”.
In the case of `CCCCOCCOc1ccc(-c2ccc3c(c2)C=C(C(=O)Nc2ccc([S@@+]([O-])Cc4cncn4CCC)cc2)CCCN3CC(C)C)cc1` [cenicriviroc mesylate, (S)-8-[4-(2-Butoxyethoxy)phenyl]-1-isobutyl-N-(4-{[(1-propyl-1H-imidazol-5-yl)methyl]sulfinyl}phenyl)-1,2,3,4-tetrahydro-1-benzazocine-5-carboxamide monomethanesulfonoate], the solubility entry in data set [4] (99.5% ethanol) was “sparingly soluble”; in data set [4] (acetonitrile, 1-octanol, tetrahydrofuran), “slightly soluble”; in data set [4] (aqueous solution at pH 3) it was “sparingly soluble”; in data set [4] (aqueous solution from pH 1 to 2), “freely soluble”; in data set [4] (ethyl acetate and diethylether), “practically insoluble”; in data set [4] (glacial acetic acid, methanol, benzyl alcohol, dimethylsulfoxide, N,N-dimethylformamide) it was “freely soluble”. The solubility entry in data set [4] (pH 4 to 13 and in water) is “practically insoluble”; in data set [4] (pyridine and acetic anhydride), “soluble”.
